Columns and labels:
[1] = target: T1, human CYP11B2 (Homo sapiens, UniProt P19099); assay: G-402 cellular enzyme assay, human CYP11B2 (aldosterone release, HTRF); format: cell-based; conditions: G-402 cells expressing human CYP11B2; 1 μM Deoxycorticosterone
T1 construct: expressed in transfected cells
T1 sequence (P19099 25-503): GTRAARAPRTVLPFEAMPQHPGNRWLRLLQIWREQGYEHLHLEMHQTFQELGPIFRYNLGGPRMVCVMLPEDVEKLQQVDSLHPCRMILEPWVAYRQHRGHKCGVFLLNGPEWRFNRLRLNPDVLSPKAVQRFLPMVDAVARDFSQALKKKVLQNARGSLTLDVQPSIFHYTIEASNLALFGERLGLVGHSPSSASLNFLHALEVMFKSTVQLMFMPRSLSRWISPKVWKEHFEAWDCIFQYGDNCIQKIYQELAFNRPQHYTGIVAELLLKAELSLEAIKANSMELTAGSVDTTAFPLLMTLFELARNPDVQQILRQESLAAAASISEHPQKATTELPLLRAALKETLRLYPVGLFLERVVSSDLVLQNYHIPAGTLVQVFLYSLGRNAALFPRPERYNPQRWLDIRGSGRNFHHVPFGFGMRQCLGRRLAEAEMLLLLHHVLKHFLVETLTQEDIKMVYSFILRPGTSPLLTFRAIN
Text: (§1) Herein we identified the use of the G-402 cell line as a host cell to ectopically express (transiently or stably) enzymes of the CYP11 family. Specifically we developed stable G-402 cells expressing ectopically human CYP11B1, human CYP11B2, human CYP11A1, cynomolgus CYP11B1 or cynomolgus CYP11B2 enzyme activity. Importantly the identified cell line G-402 expresses co-factors (adrenodoxin and adrenodoxin reductase) important for the activity of the CYP11 family and no relevant enzyme activity of the CYP11 family (in comparison to H295R cells) was detected in these cells. Therefore the G-402 cell line is uniquely suited as a host cell for the ectopic expression of enzymes from the CYP11 family.
(§2) G-402 cells can be obtained from ATCC(CRL-1440) and were originally derived from a renal leiomyoblastoma.
(§3) The expression plasmids contains the ORF for either human/cyno CYP11B1 or CYP11B2 under the control of a suitable promoter (CMV-promoter) and a suitable resistance marker (neomycin). Using standard techniques the expression plasmid is transfected into G-402 cells and these cells are then selected for expressing the given resistance markers. Individual cell-clones are then selected and assessed for displaying the desired enzymatic activity using 11-Deoxycorticosterone (Cyp11B2) or 11-Deoxycortisol (Cyp11B1) as a substrate.
(§4) G-402 cells expressing CYP11 constructs were established as described above and maintained in McCoy's 5a Medium Modified, ATCC Catalog No. 30-2007 containing 10% FCS and 400 μg/ml G418 (Geneticin) at 37° C. under an atmosphere of 5% CO2/95% air. Cellular enzyme assays were performed in DMEM/F12 medium containing 2.5% charcoal treated FCS and appropriate concentration of substrate (0.3-10 uM 11-Deoxycorticosterone, 11-Deoxycortisol or Corticosterone). For assaying enzymatic activity, cells were plated onto 96 well plates and incubated for 16 h. An aliquot of the supernatant is then transferred and analyzed for the concentration of the expected product (Aldosterone for CYP11B2; Cortisol for CYP11B1). The concentrations of these steroids can be determined using HTRF assays from CisBio analyzing either Aldosterone or Cortisol.
(§5) Inhibition of the release of produced steroids can be used as a measure of the respective enzyme inhibition by test compounds added during the cellular enzyme assay. The dose dependent inhibition of enzymatic activity by a compound is calculated by means of plotting added inhibitor concentrations (x-axes) vs. measured steroid/product level (y-axes). The inhibition is then calculated by fitting the following 4-parameter sigmoidal function (Morgan-Mercer-Flodin (MMF) model) to the raw data points using the least squares method:
(§6) [formula] wherein, A is the maximum y value, B is the EC50 factor determined using XLFit, C is the minimum y value and D is the slope value.
(§7) EC50 values for compounds claimed herein were tested with the G402-based assay system described. Cyp11B2 enzyme activity was tested in presence of 1 μM Deoxycorticosterone and variable amounts of inhibitors; Cyp11B1 enzyme activity was tested in presence of 1 μM Deoxycortisol and variable amounts of inhibitors.

[2] = target: T2, human CYP11B1 (Homo sapiens, UniProt P15538); assay: G-402 cellular enzyme assay, human CYP11B1 (cortisol release, HTRF); format: cell-based; conditions: G-402 cells expressing human CYP11B1; 1 μM Deoxycortisol
T2 construct: expressed in transfected cells
T2 sequence (P15538 25-503): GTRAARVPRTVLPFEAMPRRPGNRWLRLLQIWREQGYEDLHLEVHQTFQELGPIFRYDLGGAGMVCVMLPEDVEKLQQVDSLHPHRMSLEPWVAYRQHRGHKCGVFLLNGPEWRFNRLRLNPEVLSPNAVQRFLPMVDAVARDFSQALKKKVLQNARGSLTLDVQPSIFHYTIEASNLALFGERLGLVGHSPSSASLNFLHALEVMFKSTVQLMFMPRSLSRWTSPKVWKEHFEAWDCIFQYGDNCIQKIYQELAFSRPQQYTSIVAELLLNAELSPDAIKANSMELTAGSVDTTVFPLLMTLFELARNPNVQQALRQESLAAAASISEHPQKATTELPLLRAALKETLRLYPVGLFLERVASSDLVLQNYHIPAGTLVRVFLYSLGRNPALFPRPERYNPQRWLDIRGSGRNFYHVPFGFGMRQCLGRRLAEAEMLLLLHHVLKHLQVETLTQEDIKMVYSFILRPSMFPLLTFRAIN
Text: as §1, §2, §3, §4, §5, §6, §7

| EC50 [1] [nM] | EC50 [2] [nM] | Compound |
| --- | --- | --- |
| 19 | 1200 | CCS(=O)(=O)NCc1cncc(-c2ccc3c(c2)CCC(=O)N3C)c1 [Example 15] |
| 829 | > 10000 | CCNC[C@@H]1CCCN1c1cncc(-c2ccc3c(c2)CCC(=O)N3C)c1 [Example 9, 6-[5-((S)-2-Ethylaminomethyl-pyrrolidin-1-yl)-pyridin-3-yl]-1-methyl-3,4-dihydro-1H-quinolin-2-one] |
| 119 | 2290 | CCC(=O)N1CCC[C@@H]1COc1cncc(-c2ccc3c(c2)CCC(=O)N3C)c1 [Example 128] |
| 30 | 613 | CCC(=O)N1CC(Oc2cncc(-c3ccc4c(c3)CCC(=O)N4C)c2)C1 [Example 129] |
| 9 | 623 | CCC(=O)NCc1cncc(-c2ccc3c(c2)CCC(=O)N3C)c1Cl [Example 265, N-[4-Chloro-5-(1-methyl-2-oxo-1,2,3,4-tetrahydro-quinolin-6-yl)-pyridin-3-ylmethyl]-propionamide] |
| 21 | 260 | COC[C@@H]1CCCN1Cc1cncc(-c2ccc3c(c2)CCC(=O)N3C)c1 [Example 21] |
| 416 | 29200 | CN1C(=O)CCc2nc(-c3cccnc3)ccc21 [Example 34, 1-Methyl-6-pyridin-3-yl-3,4-dihydro-1H-[1,5]naphthyridin-2-one] |
| 29 | 1980 | CCS(=O)(=O)NCc1cncc(-c2cc3c(cc2F)N(C)C(=O)CC3)c1C [Example 192, Ethanesulfonic acid [5-(7-fluoro-1-methyl-2-oxo-1,2,3,4-tetrahydro-quinolin-6-yl)-4-methyl-pyridin-3-ylmethyl]-amide] |
| 3 | 267 | CN1C(=O)CCc2cc(-c3cncc(C(C)(C)NC(=O)c4ncccc4Cl)c3)ccc21 [Example 138] |
| 3 | 77 | O=C(NCc1cncc(-c2cc3c4c(c2)CCN4C(=O)CC3)c1)c1ncccc1Cl [Example 236, 3-Chloro-pyridine-2-carboxylic acid [5-(4-oxo-1,2,5,6-tetrahydro-4H-pyrrolo[3,2,1-ij]quinolin-8-yl)-pyridin-3-ylmethyl]-amide] |
| 7 | 270 | CN1C(=O)CCc2cc(-c3cncc(NCc4ccccc4)n3)c(F)cc21 [Example 27] |
| 260 | 5560 | CN1C(=O)CCc2cc(-c3cncc(N4CC5(CN(C(=O)OC(C)(C)C)C5)C4)c3)ccc21 [Example 29] |
| 78 | 712 | Cc1nc(C(=O)NCc2cncc(-c3ccc4c(c3)CCC(=O)N4C)c2)co1 [Example 109] |
| 10 | 656 | Cc1c(CN(C)C(=O)c2ncccc2Cl)cncc1-c1ccc2c(c1)CCC(=O)N2C [Example 229, 3-Chloro-pyridine-2-carboxylic acid methyl-[4-methyl-5-(1-methyl-2-oxo-1,2,3,4-tetrahydro-quinolin-6-yl)-pyridin-3-ylmethyl]-amide] |
| 3 | 440 | CN1C(=O)CCc2cc(-c3cncc(CNC(=O)c4ncccc4Cl)c3)c(F)cc21 [Example 131, 3-Chloro-pyridine-2-carboxylic acid [5-(7-fluoro-1-methyl-2-oxo-1,2,3,4-tetrahydro-quinolin-6-yl)-pyridin-3-ylmethyl]-amide] |
| 49 | 2330 | CN1C(=O)CCc2cc(-c3cncc(CN4C(=O)CC[C@H]4CO)c3)ccc21 [Example 8, 6-[5-((S)-2-Hydroxymethyl-5-oxo-pyrrolidin-1-ylmethyl)-pyridin-3-yl]-1-methyl-3,4-dihydro-1H-quinolin-2-one] |
| 4 | 62 | CCC(=O)N(C)CCOc1cncc(-c2ccc3c(c2)CCC(=O)N3C)c1 [Example 197, N-Methyl-N-{2-[5-(1-methyl-2-oxo-1,2,3,4-tetrahydro-quinolin-6-yl)-pyridin-3-yloxy]-ethyl}-propionamide] |
| 31 | 800 | CCS(=O)(=O)NC(C)c1cncc(-c2ccc3c(c2)CCC(=O)N3C)c1 (single isomer, unassigned) [Example 173, Ethanesulfonic acid {(R or S)-1-[5-(1-methyl-2-oxo-1,2,3,4-tetrahydro-quinolin-6-yl)-pyridin-3-yl]-ethyl}-amide] |
| 44 | 2540 | CCS(=O)(=O)NCc1cncc(-c2cc3c(cc2Cl)N(C)C(=O)CC3)c1 [Example 207, Ethanesulfonic acid [5-(7-chloro-1-methyl-2-oxo-1,2,3,4-tetrahydro-quinolin-6-yl)-pyridin-3-ylmethyl]-amide] |
| 16 | 632 | Cc1nocc1C(=O)NCc1cncc(-c2ccc3c(c2)CCC(=O)N3C)c1 [Example 92] |
| 15 | 699 | CCS(=O)(=O)N1CC(Oc2cncc(-c3ccc4c(c3)CCC(=O)N4C)c2)C1 [Example 170, 6-[5-(1-Ethanesulfonyl-azetidin-3-yloxy)-pyridin-3-yl]-1-methyl-3,4-dihydro-1H-quinolin-2-one] |
| 3 | 48 | CN1C(=O)CCc2cc(-c3cncc(CNC(=O)c4cccnn4)c3)ccc21 [Example 85] |
| 114 | 6650 | O=C1CCc2cc(-c3cncc(CNC(=O)c4ncccc4Cl)c3)ccc2N1 [Example 140, 3-Chloro-pyridine-2-carboxylic acid [5-(2-oxo-1,2,3,4-tetrahydro-quinolin-6-yl)-pyridin-3-ylmethyl]-amide] |
| 4 | 81 | Cc1nc(C(=O)NCc2cncc(-c3ccc4c(c3)CCC(=O)N4C)c2)c(C)o1 [Example 111] |
| 10 | 837 | CCC(=O)N1CC[C@@H](Oc2cncc(-c3cc4c(cc3F)N(C)C(=O)CC4)c2)C1 [Example 133] |
| 61 | 2390 | CN1C(=O)CCc2cc(-c3cncc(CNS(=O)(=O)C(F)(F)F)c3)ccc21 [Example 163, C,C,C-Trifluoro-N-[5-(1-methyl-2-oxo-1,2,3,4-tetrahydro-quinolin-6-yl)-pyridin-3-ylmethyl]-methanesulfonamide] |
| 13 | 219 | CN1C(=O)CCc2cc(-c3cncc(OCCNC(=O)c4ncccc4Cl)c3)ccc21 [Example 233, 3-Chloro-pyridine-2-carboxylic acid {2-[5-(1-methyl-2-oxo-1,2,3,4-tetrahydro-quinolin-6-yl)-pyridin-3-yloxy]-ethyl}-amide] |
| 17 | 1070 | CN1C(=O)CCc2cc(-c3cncc(CNC(=O)c4cnn(C)c4)c3)ccc21 [Example 87, 1-Methyl-1H-pyrazole-4-carboxylic acid [5-(1-methyl-2-oxo-1,2,3,4-tetrahydro-quinolin-6-yl)-pyridin-3-ylmethyl]-amide] |
